Experiments:
[1] = IC50 ratio evaluated as the IC50 values of testis to that of liver.; assay type: functional; set-up: reference not given here
[2] = target: T1, 3-hydroxy-3-methylglutaryl-coenzyme A reductase (Rattus norvegicus, UniProt P51639); assay: Ability to inhibit microsomal preparation of HMG-CoA reductase in rat liver.
T1 sequence (P51639 whole entry): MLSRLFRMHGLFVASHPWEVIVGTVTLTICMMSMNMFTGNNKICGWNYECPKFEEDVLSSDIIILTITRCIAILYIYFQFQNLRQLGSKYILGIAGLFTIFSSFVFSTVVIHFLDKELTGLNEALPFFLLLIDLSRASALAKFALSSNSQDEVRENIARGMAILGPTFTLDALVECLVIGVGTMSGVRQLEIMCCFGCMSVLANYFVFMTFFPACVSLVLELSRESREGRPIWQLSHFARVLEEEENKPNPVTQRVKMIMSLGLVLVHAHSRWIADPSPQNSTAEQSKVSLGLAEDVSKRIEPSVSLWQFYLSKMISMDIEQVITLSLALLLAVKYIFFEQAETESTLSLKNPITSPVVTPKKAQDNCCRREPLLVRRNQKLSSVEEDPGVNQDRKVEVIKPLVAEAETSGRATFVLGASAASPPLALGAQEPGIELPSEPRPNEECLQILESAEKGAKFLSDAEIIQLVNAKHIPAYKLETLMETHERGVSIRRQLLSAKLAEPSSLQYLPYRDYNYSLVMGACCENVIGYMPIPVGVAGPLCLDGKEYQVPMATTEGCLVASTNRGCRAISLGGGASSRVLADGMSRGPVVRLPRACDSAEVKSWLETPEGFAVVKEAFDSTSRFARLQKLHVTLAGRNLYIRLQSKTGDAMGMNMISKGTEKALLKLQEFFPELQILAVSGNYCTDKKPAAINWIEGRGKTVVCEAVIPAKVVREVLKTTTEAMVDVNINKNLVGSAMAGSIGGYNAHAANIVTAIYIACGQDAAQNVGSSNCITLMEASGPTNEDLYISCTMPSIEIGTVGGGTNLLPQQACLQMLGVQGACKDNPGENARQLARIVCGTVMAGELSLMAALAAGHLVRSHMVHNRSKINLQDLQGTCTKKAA

Rattus norvegicus [3] = species on record: Rattus norvegicus; assay: Incorporation of [14C]- acetate into sterols measured in rat liver.; assay type: functional, organism-based
Rattus norvegicus [4] = species on record: Rattus norvegicus; assay: Incorporation of [14C]- acetate into sterols measured in rat testis.; assay type: functional, organism-based
[5] = IC50 ratio evaluated as the IC50 values of spleen to that of liver.; assay type: functional; set-up: reference not given here
Rattus norvegicus [6] = species on record: Rattus norvegicus; assay: Incorporation of [14C]- acetate into sterols measured in rat spleen.; assay type: functional, organism-based
Rattus norvegicus [7] = species on record: Rattus norvegicus; assay: Compound was tested for its effect on the incorporation of [14C]- acetate into sterols measured rat testis.; assay type: functional, organism-based
Rattus norvegicus [8] = species on record: Rattus norvegicus; assay: Compound was tested for its effect on the incorporation of [14C]- acetate into sterols measured rat spleen.; assay type: functional, organism-based
Rattus norvegicus [9] = species on record: Rattus norvegicus; assay: Compound was tested for its effect on the incorporation of [14C]- acetate into sterols measured rat liver.; assay type: functional, organism-based

SMILES	IC50 ratio [1]	IC50 [2] [nM]	IC50 (Rattus norvegicus [3]) [nM]	IC50 (Rattus norvegicus [4]) [nM]	IC50 ratio [5]	IC50 (Rattus norvegicus [6]) [nM]	IC50 (Rattus norvegicus [7]) [nM]	IC50 (Rattus norvegicus [8]) [nM]	IC50 (Rattus norvegicus [9]) [nM]
CC(C)c1nn(-c2ccccn2)c(-c2ccc(F)cc2)c1/C=C/[C@@H](O)C[C@@H](O)CC(=O)[O-].[Na+]	4.8	10	17	82	1.7	29	–	–	–
Cc1cc(-c2ccc(F)cc2)c(/C=C/[C@@H](O)C[C@@H](O)CC(=O)[O-])c(C(C)C)[n+]1[O-].[Na+]	39.9	9.4	–	–	14.8	–	718	266	18
Cc1cc(-c2ccc(F)cc2)c(/C=C/[C@@H](O)C[C@@H](O)CC(=O)[O-])c(C(C)C)n1.[Na+]	0.24	7.7	71	17	0.13	–	–	9	–
CC(C)c1nc2ccc(Cl)cc2c(-c2ccc(F)cc2)c1/C=C/[C@@H](O)C[C@@H](O)CC(=O)[O-].[Na+]	0.03	480	6280	184	0.02	92	–	–	–
Cc1cc(C)c(OC[C@@H](O)C[C@@H](O)CC(=O)[O-])c(C2CCCCCC2)c1.[Na+]	0.01	141	5170	63	0.02	108	–	–	–
Cc1ccc(-c2ccc(C(C)C)c(OC[C@@H](O)C[C@@H](O)CC(=O)[O-])c2-c2ccc(F)cc2)cc1.[Na+]	0.08	100	6040	511	0.06	375	–	–	–
CC(C)n1c(/C=C/C(O)CC(O)CC(=O)O)c(-c2ccc(F)cc2)c2ccccc21 (stereo unspecified) [FLUVASTATIN SODIUM]	–	–	142	4	–	292	–	–	–
CC[C@H](C)C(=O)O[C@H]1C[C@H](O)C=C2C=C[C@H](C)[C@H](CC[C@@H](O)C[C@@H](O)CC(=O)[O-])[C@H]21.[Na+] [PRAVASTATIN SODIUM]	2.3	40	141	329	1.6	228	–	–	–

Further compounds by falling IC50 [2], results first:

IC50 ratio [1]	IC50 [2] [nM]	IC50 (Rattus norvegicus [3]) [nM]	IC50 (Rattus norvegicus [4]) [nM]	IC50 ratio [5]	IC50 (Rattus norvegicus [6]) [nM]	IC50 (Rattus norvegicus [7]) [nM]	IC50 (Rattus norvegicus [8]) [nM]	IC50 (Rattus norvegicus [9]) [nM]	SMILES
0.009	26	2730	24	0.05	140	–	–	–	CC(C)c1c(Br)c(Br)c(-c2ccc(F)cc2)n1CC[C@@H](O)C[C@@H](O)CC(=O)[O-].[Na+]
5.9	13	108	638	14.6	1580	–	–	–	Cn1nnnc1C(/C=C/[C@@H](O)C[C@@H](O)CC(=O)[O-])=C(c1ccc(F)cc1)c1ccc(F)cc1.[Na+]
0.14	13	28	4	0.17	5	–	–	–	CC[C@H](C)C(=O)O[C@H]1C[C@H](C)C=C2C=C[C@H](C)[C@H](CC[C@@H]3C[C@@H](O)CC(=O)O3)[C@H]21
0.24	7.2	34	8	0.35	12	–	–	–	CC(C)c1nn(-c2ccccc2)c(-c2ccc(F)cc2)c1/C=C/[C@@H](O)C[C@@H](O)CC(=O)[O-].[Na+]
6.4	6.6	10	64	2	20	–	–	–	CC(C)c1nn(-c2cnccn2)c(-c2ccc(F)cc2)c1/C=C/[C@@H](O)C[C@@H](O)CC(=O)[O-].[Na+]
0.002	2	8070	16	0.01	77	–	–	–	CC(C)c1nc(-c2ccccc2)cc(-c2ccc(F)cc2)c1/C=C/[C@@H](O)C[C@@H](O)CC(=O)[O-].[Na+]
